Test results from the Kinase Knowledgebase extract (Sharma et al. 2016).

Assays:
PIK3CA (human) [1] = target: PIK3CA (human) (UniProt P42336); assay: Inhibition of A2780 Cell Proliferation
PIK3CA (human) [2] = target: PIK3CA (human) (UniProt P42336); assay: Inhibition of PIK3CA Kinase Activity

PIK3CA (human), sequence (P42336 whole entry, looked up): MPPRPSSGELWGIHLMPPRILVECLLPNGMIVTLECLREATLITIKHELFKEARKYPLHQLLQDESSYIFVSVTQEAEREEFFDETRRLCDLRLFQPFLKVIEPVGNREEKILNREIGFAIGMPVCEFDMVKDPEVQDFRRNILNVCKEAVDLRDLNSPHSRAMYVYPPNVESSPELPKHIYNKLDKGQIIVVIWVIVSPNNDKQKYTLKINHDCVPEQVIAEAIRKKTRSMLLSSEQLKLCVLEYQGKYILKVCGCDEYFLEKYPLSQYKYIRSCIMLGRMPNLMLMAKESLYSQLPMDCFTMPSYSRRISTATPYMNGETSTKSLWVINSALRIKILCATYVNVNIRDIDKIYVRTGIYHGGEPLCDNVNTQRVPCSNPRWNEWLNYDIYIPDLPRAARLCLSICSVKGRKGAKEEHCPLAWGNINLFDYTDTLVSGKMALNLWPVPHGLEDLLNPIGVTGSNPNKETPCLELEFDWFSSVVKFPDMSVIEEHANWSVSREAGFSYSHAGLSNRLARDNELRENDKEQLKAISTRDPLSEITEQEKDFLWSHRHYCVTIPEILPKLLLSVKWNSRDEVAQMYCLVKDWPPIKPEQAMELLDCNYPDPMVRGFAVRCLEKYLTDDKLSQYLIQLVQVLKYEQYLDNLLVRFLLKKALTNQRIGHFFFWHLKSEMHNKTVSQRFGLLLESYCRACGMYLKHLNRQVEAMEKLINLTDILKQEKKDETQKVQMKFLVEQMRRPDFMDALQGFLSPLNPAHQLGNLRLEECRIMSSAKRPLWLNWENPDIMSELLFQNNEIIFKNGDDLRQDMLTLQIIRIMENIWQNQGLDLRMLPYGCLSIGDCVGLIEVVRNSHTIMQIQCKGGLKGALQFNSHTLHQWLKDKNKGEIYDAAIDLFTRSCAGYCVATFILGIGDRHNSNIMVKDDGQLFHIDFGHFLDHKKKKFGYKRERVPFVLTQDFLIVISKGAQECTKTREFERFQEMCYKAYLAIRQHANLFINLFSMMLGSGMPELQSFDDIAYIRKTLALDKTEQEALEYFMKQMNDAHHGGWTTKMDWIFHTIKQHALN

| Compound | EC50 (PIK3CA (human) [1]) [µM] | IC50 (PIK3CA (human) [2]) [µM] |
| --- | --- | --- |
| CC(=O)Nc1cn2cc(-c3cnc(N)c(C=NN(C)C)c3)ccc2n1 | < 10 | < 1 |
| CC(=O)Nc1cn2nc(-c3cnc(N)c(-c4cccc(C(F)(F)F)c4)c3)ccc2n1 | < 10 | < 1 |
| CC(=O)Nc1nc2ccc(-c3cnc(N)c(C(F)(F)F)c3)cn2c1-c1cccc(F)c1 | < 25 | < 1 |
| Nc1ccc(C(=O)Nc2nc3ccc(-c4cnc(N)c(C(F)(F)F)c4)cc3s2)cn1 | < 1 | < 1 |
| NC(=O)N1CCC[C@H]1C(=O)Nc1cn2cc(-c3cnc(N)c(C(F)(F)F)c3)ccc2n1 | < 10 | < 10 |
| NCCC(=O)Nc1cn2nc(-c3cnc(N)c(C(F)(F)F)c3)ccc2n1 | < 10 | < 1 |
| COc1cc(-c2ccc3nc(NC(C)=O)cn3c2C)cnc1N | < 25 | < 1 |
| CC(=O)Nc1cn2cc(-c3cnc(N)c(Oc4cccc(F)c4)n3)ccc2n1 | < 1 | < 1 |
| CC(=O)Nc1cn2nc(-c3cnc(N)c(C(=O)NCCNC(=O)OC(C)(C)C)c3)ccc2n1 | < 1 | < 1 |
| Nc1ncc(-c2ccc3nc(NC(=O)C4CNC4)cn3n2)cc1Cl | < 25 | < 1 |
| CC(=O)Nc1cn2cc(-c3cnc(N)c(OC4CCC4)n3)ccc2n1 | < 1 | < 1 |
| CC(=O)Nc1nc2ccc(-c3cnc(N)c(C(F)(F)F)c3)cn2c1-c1ccccc1 | < 25 | < 1 |
| NCC(=O)Nc1cn2nc(-c3cnc(N)c(C(F)(F)F)c3)ccc2n1 | < 1 | < 1 |
| Nc1ncc(-c2ccc3nc(NC(=O)[C@H]4CCCN4)cn3n2)cc1C(F)(F)F | < 25 | < 1 |
| CC(=O)Nc1nc2ccc(-c3cnc(N)c(C(F)(F)F)c3)cn2c1C#Cc1ccccc1 | < 10 | < 1 |
| CC(=O)Nc1nc2ccc(-c3cnc(N)c(C(F)(F)F)c3)cn2c1C(N)=O | < 10 | < 1 |

| Compound | EC50 (PIK3CA (human) [1]) [µM] | IC50 (PIK3CA (human) [2]) [µM] |
| --- | --- | --- |
| Nc1ncc(-c2ccc3nc(NC(=O)c4cccc(F)c4)cn3c2)cc1C(F)(F)F | < 10 | < 1 |
| CC(=O)Nc1cn2cc(-c3cnc(N)c(C(=O)NCCNS(C)(=O)=O)n3)ccc2n1 | < 25 | < 1 |
| COc1cc(-c2ccc3nc(NC(C)=O)c(Br)n3c2)cnc1N | < 10 | < 1 |
| CC(C)(C)OC(=O)N1CC(C(=O)Nc2cn3cc(-c4cnc(N)c(C(F)(F)F)c4)ccc3n2)C1 | < 10 | < 1 |
| Nc1ncc(-c2ccc3nc(NC(=O)c4ccc(-n5ccnc5)cc4)cn3c2)cc1C(F)(F)F | < 10 | < 1 |
| CC(=O)Nc1cn2nc(-c3cnc(N)c(C(=O)NCCN)c3)ccc2n1 | < 25 | < 1 |
| CC(=O)Nc1cn2nc(-c3cnc(N)c(-c4ccc(C(F)(F)F)cc4)c3)ccc2n1 | < 1 | < 1 |
| NC(=O)Nc1cn2cc(-c3cnc(N)c(C(F)(F)F)c3)ccc2n1 | < 10 | < 1 |
| C[C@@H](N)C(=O)Nc1cn2nc(-c3cnc(N)c(C(F)(F)F)c3)ccc2n1 | < 10 | < 1 |
| CC(=O)Nc1cn2cc(-c3cnc(N)c(C(F)(F)F)c3)cc(F)c2n1 | < 10 | < 1 |
| CC(C)(C)OC(=O)N1CCC[C@H]1C(=O)Nc1cn2nc(-c3cnc(N)c(C(F)(F)F)c3)ccc2n1 | < 25 | < 1 |
| COC(=O)Nc1nc2ccc(-c3ccc(N)nc3)cc2s1 | < 10 | < 1 |
| Nc1ncc(-c2ccc3nc(NC(=O)CCCN4CCCCC4)cn3n2)cc1C(F)(F)F | < 1 | < 1 |
| CNCC(=O)Nc1cn2cc(-c3cnc(N)c(OCCOC)n3)ccc2n1 | < 10 | < 1 |
| Nc1ccc(-c2ccc3nc(NC(=O)CCCN4CCOCC4)sc3c2)cn1 | < 25 | < 1 |
| C[C@H](N)C(=O)Nc1cn2nc(-c3cnc(N)c(C(F)(F)F)c3)ccc2n1 | < 10 | < 1 |
